Experiments:
[1] = 50 μg in 10 μL 95% ethanol, shaved skin of rats; cited from earlier work
[2] = generated by ultraviolet exposure, bound to DBP, experimental subjects; cited from earlier work
[3] = 14 days; cited from earlier work
[4] = Experiment 3: serum 25(OH)D3 after 6 weeks of vitamin D3 nutrition; type: in vivo, Male Wistar rats
Description: Male, Wistar rats were obtained at 120-130 g, and placed on a 0.01% calcium, 0.7% phosphate diet that was vitamin D deficient (Teklad Test Diets, Madison, WI) this was for one week to help deplete vitamin D stores. For the next three weeks the rats were fed the vitamin D-deficient diet, but with normal, 0.5%, calcium. Starting with these 3 weeks, the rats were divided into four vitamin D3 -treatment groups, initially, nine rats per group: group a) supplemented once weekly with 0.6 μg vitamin D3 (average dose, 0.08 μg/day); group b) supplemented once every second day with vitamin D3 to provide 2 nmol/day, i.e., each dose was 4 nmol of vitamin D3; group c) supplemented once every second day with vitamin D3 to provide 8 μg/day. The preceding groups all received the vitamin D3 through an infant-feeding tube inserted through the mouth into the stomach. One group, d), received its vitamin D3 in the ethanol applied onto a shaved 2 cm×2 cm patch of skin on the back, this was done every second day to provide vitamin D3 at 8 μg/day. The volume of each dose of vitamin D3 given was adjusted so that the stated doses are per 250 g body weight. […]
Biochemical measurements. 1,25(OH)2 D3 in serum was measured by calf-thymus receptor-binding assay after initial purification of 1,25(OH)2 D3 with C18-OH cartridges (5). For the serum volumes that were minimal, serum was measured out in 50 μL increments, and the final result was adjusted for the volume of sample analyzed. […] The material eluting as 1,25(OH)2 D3 was evaporated and redissolved in acetonitrile: water for further purification with C18-OH cartridges and quantitation by thymus receptor assay, as described for serum. Renal 24-hydroxylase was measured by incubating mitochondria with [^3 H]-25(OH)D3 as substrate (Vieth and Fraser, J Biol Chem. 254:12455-12460;1979). […]

[5] = cited from earlier work

C=C1CC[C@H](O)C/C1=C/C=C1\CCC[C@]2(C)[C@@H]([C@H](C)CCCC(C)C)CC[C@@H]12 [vitamin D3]
response (intestinal calcium transport and serum calcium) [1]: no response was detected
persistence in circulation [2]: circulate unchanged for a prolonged time
fatal oral dose [3]: 2600 µg/day
effectiveness of dermal vs oral route in raising 25(OH)D3 ([4]; 20 nmol/250 g/day): 85%
serum 25(OH)D3 ([4]; dermal 8 μg/day): 127 ± 4 nmol/L
serum 25(OH)D3 ([4]; gastric 8 μg/day): 148 ± 10 nmol/L
solubility in water [5]: not soluble in water

— patent publication US5532229A, “Topical administration of vitamin D to mammals” (priority 1994, dated 1996)
